Source: doi:10.1101/2023.05.15.540887, “Comparative analysis of drug-like EP300/CREBBP acetyltransferase inhibitors” (bioRxiv, 2023)
Where “and” joins values, the source holds several entries; their conditions need not be identical. Equal values may be shown once. Read-outs that look alike come from different tables or passages of the source.

How the values were obtained:
HOP-92 = assay: NCI-60 growth inhibition (sulforhodamine B); type: cell-based, human; conditions: HOP-92 (Non-Small Cell Lung Cancer), negative log of Molar conc., LCONC -8
NCI-H23 = assay: NCI-60 growth inhibition (sulforhodamine B); type: cell-based, human; conditions: NCI-H23 (Non-Small Cell Lung Cancer), negative log of Molar conc., LCONC -8
SF-268 = assay: NCI-60 growth inhibition (sulforhodamine B); type: cell-based, human
NCI-H322M = assay: NCI-60 growth inhibition (sulforhodamine B); type: cell-based, human; conditions: NCI-H322M (Non-Small Cell Lung Cancer), negative log of Molar conc., LCONC -8
M14 = M14 (Melanoma); negative log of Molar conc.; LCONC -8
HCC-2998 = assay: NCI-60 growth inhibition (sulforhodamine B); type: cell-based, human; conditions: HCC-2998 (Colon Cancer), negative log of Molar conc., LCONC -8
[1] = test system: histone H3 acetylation in T-47D cells; assay: Quantitative LC-MS analysis of histone H3 acetylation in T-47D cells; type: cell-based, human; conditions: 24 h
From the text: In principle the phenotype elicited by any single small molecule can be due to either an on- or off-target effect; however, if multiple chemically distinct small molecules designed to target a single gene all elicit the same phenotype, one’s confidence in their on-target mechanism becomes greater. As such, we sought to apply our knowledge of the comparative potencies of 1-3 to test whether the simplest phenotype caused by EP300/CREBBP inhibitors – cell death – was consistent with their effects on histone acetylation and a putative on-target mechanism. Compounds 1-3 were submitted for analysis in the NCI-60 screen, which has been used since 1990 to analyze the growth inhibitor effects of small molecules across a range of transformed cell lines derived from diverse tissues of origin including colorectal, renal, ovarian, prostate, lung, breast, and central nervous system tumors.[28] […] These trends were further confirmed using an orthogonal ATP-Glo assay in MCF-7 cells (Fig. S2). Subsequently, the COMPARE algorithm was used to compare the patterns of growth inhibition elicited by 1-3 in the NCI-60 assay against the >150,000 compounds analyzed in the screen to date.[29] […] Finally, the specificity of CPI-1612 (3) was directly assessed using quantitative LC-MS analysis of histone acetylation in treated cells,[33] focusing on four abundant histone acetylation markers whose writers are well-characterized: H3K9Ac (written by KAT2A/B), H3K14Ac (KAT7), H3K18Ac (EP300/CREBBP), and H3K23Ac (KAT6A/B; Fig. 3e).[26] […] An increase in the levels of singly modified H3K23Ac peptide coincided with specific loss of H3K18Ac from K18/K23 diacetylated peptide, indicative of orthogonal regulation. Overall, the parallel trends in the biochemical and cellular potencies of EP300/CREBBP inhibitors are consistent with an on-target mechanism for 1-3 and further highlight the relatively high potency of CPI-1612 (3).
T-47D cells were plated at 4 x 10^6 cells per plate in 10 cm dishes in 10 mL of media. After 16-24 h cells were treated with 5, 50, or 500 nM of 3. Compound 3 was dosed from stock solutions equal to 100x the final concentration in RPMI-1640. When necessary additional DMSO was added to maintain a constant concentration of 0.1%. Controls were treated with vehicle DMSO (0.1%). After 24 h, cells were washed with 5 mL ice cold 1x PBS, scraped in 5 mL of 1x PBS, transferred to a pre-chilled 15 mL tube, centrifuged (800 rcf x 5 min), and either snap frozen or immediately processed via the following protocol.^5 Pellets were washed twice and resuspended in 400 µL NIB (15 mM pH 7.5 Tris-HCl, 60 mM KCl, 15 mM NaCl, 5 mM MgCl2, 1 mM CaCl2, 250 mM sucrose, 1X protease inhibitor cocktail [Cell Signaling Technology #5871]), 1 mM DTT, and 10 mM sodium butyrate) with 0.3% IGEPAL CA-630 to lyse cells. Suspensions were transferred into tubes on ice and incubated for >5 min. Nuclei were pelleted (700 rcf, 4 °C , 5 min) and the supernatant discarded. Pelleted nuclei were subjected to two cycles of a wash with 500 µL NIB (without IGEPAL CA-630) followed by centrifugation (700 rcf, 4 °C , 5 min) in order to remove all IGEPAL CA-630. Nuclei were re-suspended in 200 µL 0.2 N H2SO4 and rotated at 4 °C for 2 h. Samples were then centrifuged (3,400 rcf, 4 °C , 5 min) and supernatants transferred into new tubes (pellets discarded). 66 µL of 100% TCA was added to each sample (final TCA concentration: 20%) and tubes were inverted once. Histones were precipitated at 4 °C for 16 h, then centrifuged (3,400 rcf, 4 °C , 5 min) and supernatants carefully discarded, with histones now visible as films on the sides and at the bottom of tubes. Histones were subjected to two cycles of washing (0.5 mL of ice-cold acetone + 1% 1M HCl, followed by 1 mL of 100% ice-cold acetone) followed by centrifugation (11,000 rcf, 4 °C , 5 min) after each step. Samples were air dried at room temperature and resuspended in 30 µL of ddH2O. […]

A498 = assay: NCI-60 growth inhibition (sulforhodamine B); type: cell-based; conditions: Homo sapiens, A498, Renal Cancer, negative log of Molar value, LCONC -8, EXPID 2301NS84
[2] = Homo sapiens, read-out: GI50 NLOGVALUE (converted)
[3] = Homo sapiens, read-out: IC50 NLOGVALUE
[4] = Homo sapiens, read-out: LC50 NLOGVALUE
[5] = Homo sapiens, read-out: IC50 NLOGVALUE (converted)

## C[C@H](CN[C@@H](C(=O)Nc1ccc(-c2cnn(C)c2)cn1)c1ccccc1)c1ccc(C#N)cc1 [CPI-1612]
HOP-92
  TGI NLOGVALUE: 4
HOP-92; [2]
  GI50: 1620 nM
HOP-92; [3]
  IC50: > 100000 nM
HOP-92; [4]
  CC50: > 100000 nM
NCI-H23; [2]
  GI50: 33.1 nM
NCI-H23; [5]
  IC50: 851 nM
NCI-H23; [4]
  CC50: > 100000 nM
NCI-H23
  TGI NLOGVALUE: 4
SF-268; Homo sapiens, SF-268, read-out: GI50 AVGDATA (converted)
  GI50: 676 nM
SF-268; Homo sapiens, SF-268 (CNS Cancer), negative log of Molar conc., LCONC -8, read-out: GI50 NLOGVALUE (converted)
  GI50: 692 nM
SF-268; Homo sapiens, SF-268 (CNS Cancer), negative log of Molar conc., LCONC -8, read-out: IC50 NLOGVALUE (converted)
  IC50: 79400 nM
SF-268; Homo sapiens, SF-268 (CNS Cancer), negative log of Molar conc., LCONC -8, read-out: LC50 NLOGVALUE
  CC50: > 100000 nM
SF-268; SF-268 (CNS Cancer), negative log of Molar conc., LCONC -8
  TGI NLOGVALUE: 4
NCI-H322M; [2]
  GI50: 288 nM
NCI-H322M; [3]
  IC50: > 100000 nM
NCI-H322M
  TGI NLOGVALUE: 4
M14
  TGI NLOGVALUE: 4
HCC-2998
  TGI NLOGVALUE: 4
HCC-2998; [2]
  GI50: 110 nM
HCC-2998; [5]
  IC50: 33900 nM
HCC-2998; [4]
  CC50: > 100000 nM
[1]; T-47D cells, 5, 50 or 500 nM, LC-MS
  specificity on histone H3 acetylation marks (H3K9Ac, H3K14Ac, H3K18Ac, H3K23Ac): affected the abundance of only the EP300/CREBBP-dependent peptides containing H3K18Ac
[1]; T-47D, 5 nM, Rep1-3
  ratio normalized to largest mean (vehicle or 500 nM), H3_9_17 K9ac (K9Ac): 160.77 and 142.38
  ratio normalized to largest mean (vehicle or 500 nM), H3_18_26 K18ac (K18Ac): 31.25 and 26.23 and 16.75
  ratio normalized to largest mean (vehicle or 500 nM), summed H3_9_17 K14ac peptides (K14Ac): 93.75 and 92.27 and 95.59
  ratio, H3_9_17 K9ac (K9Ac): 0.039 and 0.034
  ratio, H3_18_26 K18ac (K18Ac): 0.0063 and 0.0053 and 0.0034
  ratio, H3_18_26 K18acK23ac (K18K23Ac): 0.0043 and 0.0044 and 0.0039
  ratio, H3_18_26 K23ac (K23Ac): 0.2133 and 0.2165 and 0.1842
  ratio, summed H3_9_17 K14ac peptides (K14Ac): 0.181 and 0.179 and 0.185
[1]; T-47D, 50 nM, Rep1-3
  ratio normalized to largest mean (vehicle or 500 nM), summed H3_9_17 K14ac peptides (K14Ac): 92.31 and 100.80 and 86.46
  ratio, H3_18_26 K23ac (K23Ac): 0.2929 and 0.2070 and 0.3135
  ratio, summed H3_9_17 K14ac peptides (K14Ac): 0.167 and 0.179 and 0.195
[1]; T-47D, 500 nM, Rep1-3
  ratio normalized to largest mean (vehicle or 500 nM), H3_18_26 K18ac (K18Ac): 2.61 and 1.89 and 1.57
  ratio normalized to largest mean (vehicle or 500 nM), summed H3_9_17 K14ac peptides (K14Ac): 103.05 and 88.46 and 106.21
  ratio, H3_18_26 K18ac (K18Ac): 0.0005 and 0.000379 and 0.0003
  ratio, H3_18_26 K23ac (K23Ac): 0.2977 and 0.3570 and 0.3048
  ratio, summed H3_9_17 K14ac peptides (K14Ac): 0.199 and 0.171 and 0.206
A498; read-out: GI50 NLOGVALUE (converted)
  GI50: 29.5 nM
A498; read-out: IC50 NLOGVALUE
  IC50: > 100000 nM
A498; read-out: LC50 NLOGVALUE
  CC50: > 100000 nM
